Each structure is given as a SMILES string.

The data set is described as follows: Lipophilicity, log D of the compound. Format: physicochemical. The note with it: octanol/water.

A word on the logD: it is the decadic logarithm of the distribution of all forms, ionised or not, between an organic phase and buffer at a given pH. `O=C(N[C@@H](C(=O)NO)c1ccccc1)c1ccc(C#Cc2ccccc2)cc1` yielded a logD of over 3.

Molecule `NC(=O)C[C@H](NC(=O)c1ccc(C#Cc2ccccc2)cc1)C(=O)NO` came in with a logD of 1.

`O=C(C[C@H](NC(=O)c1ccc(C#Cc2ccccc2)cc1)C(=O)NO)NCCCO` came in with a logD of 2.

For the molecule `COCCNC(=O)C[C@H](NC(=O)c1ccc(C#Cc2ccccc2)cc1)C(=O)NO`, the logD stood at 2.

Turning to `C#CCNC(=O)C[C@H](NC(=O)c1ccc(C#Cc2ccccc2)cc1)C(=O)NO`, the logD came out at 3.

For the molecule `O=C(NC1(C(=O)NO)CCC1)c1ccc(C#Cc2ccccc2)cc1`, the logD is over 3.

In turn, `O=C(NC1(C(=O)NO)CCCCC1)c1ccc(C#Cc2ccccc2)cc1` had a logD of over 3.

`O=C(NC1(C(=O)NO)CCOCC1)c1ccc(C#Cc2ccccc2)cc1` registered a logD of over 4.

In turn, `O=C(NC1(C(=O)NO)CCSCC1)c1ccc(C#Cc2ccccc2)cc1` registered a logD of over 3.

The molecule `O=C(NC1(C(=O)NO)CCS(=O)(=O)CC1)c1ccc(C#Cc2ccccc2)cc1` returned a logD of 3.

`O=C(NC1(C(=O)NO)CCNCC1)c1ccc(C#Cc2ccccc2)cc1` gave a logD of 3.

Turning to `O=C(NC1(C(=O)NO)CCN(Cc2ccccc2)CC1)c1ccc(C#Cc2ccccc2)cc1`, the logD was over 3.

With `C[C@H](O)[C@H](NC(=O)c1ccc(C#Cc2ccccc2)cc1)C(=O)NO`, the log distribution coefficient (logD) was 2.

`O=C(CNC(=O)c1ccc(C#Cc2ccccc2)cc1)NO` yielded a logD of 3.

`CC(C)(NC(=O)c1ccc(C#Cc2ccccc2)cc1)C(=O)NO`: the logD was found to be 3.

`O=C(N[C@@H](CO)C(=O)NO)c1ccc(C#Cc2ccccc2)cc1` gave a logD of 2.

Regarding `O=C(N[C@H](CO)C(=O)NO)c1ccc(C#Cc2ccccc2)cc1`, the logD was determined as 2.

`NC[C@H](NC(=O)c1ccc(C#Cc2ccccc2)cc1)C(=O)NO` returned a logD of 2.

`CSC[C@H](NC(=O)c1ccc(C#Cc2ccccc2)cc1)C(=O)NO` had a logD of 3.

In turn, `CS(=O)(=O)C[C@H](NC(=O)c1ccc(C#Cc2ccccc2)cc1)C(=O)NO` registered a logD of 2.

In turn, `O=C(N[C@H](C(=O)NO)c1ccccc1)c1ccc(C#Cc2ccccc2)cc1` registered a logD of 3.

`CC(NC(=O)c1ccc(C#Cc2ccccc2)cc1)C(=O)NO` (racemic): the logD was over 3.

Turning to `CC(C)C(NC(=O)c1ccc(C#Cc2ccccc2)cc1)C(=O)NO` (racemic), the logD was over 3.

These data come from ChEMBL document CHEMBL2375281, “Exploring the UDP pocket of LpxC through amino acid analogs” (Bioorg Med Chem Lett, 2013).
